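Compound exposure: 48 hours, 5 concentrations, 96-well plates. GI50 marks 50% less growth.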 Active and inactive are the calls of the source. Cut-off read from the data, not from the text of the source: active = GI50 up to about 1.1 µM and inactive = higher.
Assays:
Assay in all cases: NCI-60 cell line screen, 48 h
[1] = test system: KM12
[2] = test system: MDA-N
[3] = test system: OVCAR-8
[4] = test system: DU-145
[5] = test system: Hs-578T
[6] = test system: CAKI-1
[7] = test system: LOX IMVI
[8] = test system: COLO 205
[9] = test system: SF-539
[10] = test system: NCI-H23
[11] = test system: SR
[12] = test system: SK-MEL-5
[13] = test system: EKVX
[14] = test system: SNB-19
[15] = test system: NCI/ADR-RES
[16] = test system: HOP-62
[17] = test system: ACHN
[18] = test system: SK-OV-3
[19] = test system: BT-549
[20] = test system: A549

| SMILES | GI50 [1] | GI50 [2] | GI50 [3] | GI50 [4] | GI50 [5] | GI50 [6] | GI50 [7] | GI50 [8] | GI50 [9] | GI50 [10] | GI50 [11] | GI50 [12] | GI50 [13] | GI50 [14] | GI50 [15] | GI50 [16] | GI50 [17] | GI50 [18] | GI50 [19] | GI50 [20] |
| --- | --- | --- | --- | --- | --- | --- | --- | --- | --- | --- | --- | --- | --- | --- | --- | --- | --- | --- | --- | --- |
| CC(C)C(C/C=C1/CC(CO)(COC(=O)C(C)(C)C)OC1=O)C(C)C (configuration not stated) | 13.8 µM (inactive) | 4.3 µM (inactive) | 19 µM (inactive) | 11.1 µM (inactive) | 0.735 µM (active) | 3.3 µM (inactive) | 12.3 µM (inactive) | 0.0678 µM (active) | 0.598 µM (active) | 9.51 µM (inactive) | 14.9 µM (inactive) | 4.52 µM (inactive) | 8.17 µM (inactive) | 12.9 µM (inactive) | 15.7 µM (inactive) | 1.03 µM (active) | 5.9 µM (inactive) | 16.7 µM (inactive) | 13.5 µM (inactive) | 1.09 µM (active) |
| COc1cc2c(cc1OC)C(=O)/C(=C/c1cc(C)c(O)c(C)c1)C2 | < 0.01 µM (active) | < 0.01 µM (active) | – | < 0.01 µM (active) | < 0.01 µM (active) | 0.0803 µM (active) | < 0.0259 µM (active) | 5.02 µM (inactive) | < 0.01 µM (active) | < 0.01 µM (active) | < 0.01 µM (active) | < 0.01 µM (active) | < 0.01 µM (active) | – | 0.403 µM (active) | < 0.01 µM (active) | 0.0603 µM (active) | < 0.01 µM (active) | > 100 µM (inactive) | < 0.0165 µM (active) |
| O=C(O)C(Cl)(c1ccccc1)c1ccccc1 | > 100 µM (inactive) | > 100 µM (inactive) | > 100 µM (inactive) | > 100 µM (inactive) | > 100 µM (inactive) | > 100 µM (inactive) | > 100 µM (inactive) | > 100 µM (inactive) | > 100 µM (inactive) | > 100 µM (inactive) | > 100 µM (inactive) | > 100 µM (inactive) | > 100 µM (inactive) | > 100 µM (inactive) | > 100 µM (inactive) | > 100 µM (inactive) | > 100 µM (inactive) | > 100 µM (inactive) | > 100 µM (inactive) | > 100 µM (inactive) |
| O=C(O)c1ccc(C2=Nc3cccc4cccc(c34)N2)cc1 | > 100 µM (inactive) | > 100 µM (inactive) | > 100 µM (inactive) | > 100 µM (inactive) | > 100 µM (inactive) | > 100 µM (inactive) | > 100 µM (inactive) | > 100 µM (inactive) | > 100 µM (inactive) | > 100 µM (inactive) | 30.6 µM (inactive) | > 100 µM (inactive) | > 100 µM (inactive) | > 100 µM (inactive) | > 100 µM (inactive) | > 100 µM (inactive) | > 100 µM (inactive) | > 100 µM (inactive) | > 100 µM (inactive) | > 100 µM (inactive) |
| CCN1CCN(c2ccc(Nc3ccnc4ccc5c(nnn5C)c34)cc2)CC1 | 3.51 µM (inactive) | 3.52 µM (inactive) | 13.1 µM (inactive) | 5.25 µM (inactive) | 13.1 µM (inactive) | 5.48 µM (inactive) | 3.14 µM (inactive) | 2.78 µM (inactive) | 2.98 µM (inactive) | 11.6 µM (inactive) | 2.51 µM (inactive) | 11 µM (inactive) | 13.7 µM (inactive) | 3.15 µM (inactive) | 9.14 µM (inactive) | 5.05 µM (inactive) | 2.99 µM (inactive) | 11.4 µM (inactive) | 17.3 µM (inactive) | 7.83 µM (inactive) |
| O=[N+]([O-])c1cc(CCl)ccc1CCl | 1.66 µM (inactive) | 1.87 µM (inactive) | 2.4 µM (inactive) | 1.63 µM (inactive) | 2.72 µM (inactive) | 1.35 µM (inactive) | 1.85 µM (inactive) | 1.71 µM (inactive) | 2.56 µM (inactive) | 2.16 µM (inactive) | 0.893 µM (active) | 2.67 µM (inactive) | 1.82 µM (inactive) | 1.89 µM (inactive) | 2.7 µM (inactive) | 1.54 µM (inactive) | 1.72 µM (inactive) | 13.3 µM (inactive) | 3.07 µM (inactive) | 5.79 µM (inactive) |
| C/C(=N/O)c1cccc(Nc2nc3ccc(Cl)cc3c3[nH]c4ccccc4c23)c1 | 1.38 µM (inactive) | 1.71 µM (inactive) | 1.93 µM (inactive) | 0.261 µM (active) | 2.65 µM (inactive) | 2.24 µM (inactive) | 1.91 µM (inactive) | 1.77 µM (inactive) | 3.33 µM (inactive) | 1.92 µM (inactive) | 1.24 µM (inactive) | 1.18 µM (inactive) | – | 2.88 µM (inactive) | 1.92 µM (inactive) | 2.77 µM (inactive) | 0.929 µM (active) | 3.42 µM (inactive) | 2.93 µM (inactive) | 1.6 µM (inactive) |
| O=C1c2ccccc2C(=O)N1CCSCC(CO)SCCN1C(=O)c2ccccc2C1=O (configuration not stated) | > 100 µM (inactive) | > 100 µM (inactive) | > 100 µM (inactive) | > 100 µM (inactive) | > 100 µM (inactive) | > 100 µM (inactive) | > 100 µM (inactive) | > 100 µM (inactive) | – | > 100 µM (inactive) | > 100 µM (inactive) | > 100 µM (inactive) | 91 µM (inactive) | > 100 µM (inactive) | 74.8 µM (inactive) | > 100 µM (inactive) | > 100 µM (inactive) | > 100 µM (inactive) | > 100 µM (inactive) | > 100 µM (inactive) |
| Cc1cc(S(=O)(=O)NC2=Nc3cccc(F)c3CN2)c(S)cc1Cl | 45.7 µM (inactive) | 66.4 µM (inactive) | 61 µM (inactive) | 74.5 µM (inactive) | > 100 µM (inactive) | > 100 µM (inactive) | 50.9 µM (inactive) | > 100 µM (inactive) | 84.1 µM (inactive) | – | 48.5 µM (inactive) | 22 µM (inactive) | 75 µM (inactive) | 23.2 µM (inactive) | 49.4 µM (inactive) | – | 66.4 µM (inactive) | – | > 100 µM (inactive) | 35.2 µM (inactive) |
| COc1ccc(C(=O)/C=C/c2ccncc2)cc1OC | – | 13.1 µM (inactive) | 15.3 µM (inactive) | 17.7 µM (inactive) | 13.7 µM (inactive) | 15.7 µM (inactive) | 1.47 µM (inactive) | 15.5 µM (inactive) | 10.3 µM (inactive) | 10.7 µM (inactive) | 6.49 µM (inactive) | 16.4 µM (inactive) | 16.7 µM (inactive) | 18.5 µM (inactive) | 19.7 µM (inactive) | 16.3 µM (inactive) | 14.9 µM (inactive) | 17.2 µM (inactive) | 6.22 µM (inactive) | 15.7 µM (inactive) |
| COC(=O)C1C(OC(=O)c2ccccc2)CC2CCC1N2C(N)=O (configuration not stated) | > 100 µM (inactive) | > 100 µM (inactive) | > 100 µM (inactive) | > 100 µM (inactive) | > 100 µM (inactive) | > 100 µM (inactive) | > 100 µM (inactive) | > 100 µM (inactive) | > 100 µM (inactive) | > 100 µM (inactive) | > 100 µM (inactive) | > 100 µM (inactive) | > 100 µM (inactive) | > 100 µM (inactive) | > 100 µM (inactive) | > 100 µM (inactive) | > 100 µM (inactive) | > 100 µM (inactive) | > 100 µM (inactive) | > 100 µM (inactive) |
| COc1cccc2cc(C(=O)NC34CC5CC(CC(C5)C3)C4)c(=N)oc12 | 54.6 µM (inactive) | > 100 µM (inactive) | 23.8 µM (inactive) | > 100 µM (inactive) | 34 µM (inactive) | 99.5 µM (inactive) | > 52.8 µM (inactive) | 58.3 µM (inactive) | > 34.3 µM (inactive) | > 100 µM (inactive) | 10.2 µM (inactive) | > 69.2 µM (inactive) | > 61.8 µM (inactive) | 73.8 µM (inactive) | > 86.1 µM (inactive) | 53.1 µM (inactive) | > 67.6 µM (inactive) | 58.6 µM (inactive) | > 80.7 µM (inactive) | 64.7 µM (inactive) |
| O=c1c2ccccc2nc(-c2ccccc2)n1/N=C/c1ccccc1[N+](=O)[O-] | 57.4 µM (inactive) | > 100 µM (inactive) | > 46.2 µM (inactive) | > 100 µM (inactive) | 1.59 µM (inactive) | > 100 µM (inactive) | > 100 µM (inactive) | > 100 µM (inactive) | 19.9 µM (inactive) | 15.3 µM (inactive) | > 100 µM (inactive) | > 75.2 µM (inactive) | > 51.1 µM (inactive) | 17 µM (inactive) | 16.7 µM (inactive) | 13.6 µM (inactive) | 27.8 µM (inactive) | 19.6 µM (inactive) | 31.3 µM (inactive) | > 100 µM (inactive) |
| COc1cc2c(cc1OC(=O)c1cc3ccccc3[nH]1)N=C[C@@H]1CCCN1C2=O | 0.433 µM (active) | 0.194 µM (active) | 0.462 µM (active) | 0.425 µM (active) | 1.3 µM (inactive) | 0.294 µM (active) | 0.332 µM (active) | 0.202 µM (active) | 0.281 µM (active) | 0.37 µM (active) | 0.174 µM (active) | 0.175 µM (active) | 0.841 µM (active) | 0.352 µM (active) | 0.461 µM (active) | 0.363 µM (active) | 0.244 µM (active) | 1.35 µM (inactive) | 0.638 µM (active) | 0.662 µM (active) |

From ChEMBL document CHEMBL1201862, “PubChem BioAssay data set” (2004)
